Source: patent US9988635B2, “Modulation of growth hormone receptor expression and insulin-like growth factor expression” (Antisense Therapeutics Limited, priority 2003, dated 2018)
In the oligonucleotide strings, read from the 5' end, every base follows the letter of its sugar. An asterisk marks phosphorothioate; unmarked linkages are phosphodiester. Other units and linkages are bracketed, terminal groups are in braces. A string of capitals states the bases alone. e = 2'-O-(2-methoxyethyl) (MOE); [5mC] = 5-methylcytosine; d = 2'-deoxy (DNA)

Tested on: mouse growth hormone receptor mRNA
Test: Inhibition of mouse growth hormone receptor mRNA levels in b.END cells, quantitative real-time PCR, incl. dose-response
Assay type: cell-based
Conditions: averages from three experiments
Method: The mouse brain endothelial cell line b.END was obtained from Dr. Werner Risau at the Max Plank Instititute (Bad Nauheim, Germany). b.END cells were routinely cultured in DMEM, high glucose (Gibco/Life Technologies, Gaithersburg, Md.) supplemented with 10% fetal calf serum (Gibco/Life Technologies, Gaithersburg, Md.). Cells were routinely passaged by trypsinization and dilution when they reached 90% confluence. Cells were seeded into 96-well plates (Falcon-Primaria #3872) at a density of 3000 cells/well for use in RT-PCR analysis.
When cells reached 65-75% confluency, they were treated with oligonucleotide. For cells grown in 96-well plates, wells were washed once with 100 μL OPTI-MEM™-1 reduced-serum medium (Invitrogen Corporation, Carlsbad, Calif.) and then treated with 130 μL of OPTI-MEM™-1 containing 3.75 μg/mL LIPOFECTIN™ (Invitrogen Corporation, Carlsbad, Calif.) and the desired concentration of oligonucleotide. Cells are treated and data are obtained in triplicate. After 4-7 hours of treatment at 37° C., the medium was replaced with fresh medium. Cells were harvested 16-24 hours after oligonucleotide treatment.
Total RNA was isolated using an RNEASY 96™ kit and buffers purchased from Qiagen Inc. (Valencia, Calif.) following the manufacturer's recommended procedures. Briefly, for cells grown on 96-well plates, growth medium was removed from the cells and each well was washed with 200 μL cold PBS. 150 μL Buffer RLT was added to each well and the plate vigorously agitated for 20 seconds. 150 μL of 70% ethanol was then added to each well and the contents mixed by pipetting three times up and down. The samples were then transferred to the RNEASY 96™ well plate attached to a QIAVAC™ manifold fitted with a waste collection tray and attached to a vacuum source. Vacuum was applied for 1 minute. 500 μL of Buffer RW1 was added to each well of the RNEASY 96™ plate and incubated for 15 minutes and the vacuum was again applied for 1 minute. An additional 500 μL of Buffer RW1 was added to each well of the RNEASY 96™ plate and the vacuum was applied for 2 minutes. 1 mL of Buffer RPE was then added to each well of the RNEASY 96™ plate and the vacuum applied for a period of 90 seconds. The Buffer RPE wash was then repeated and the vacuum was applied for an additional 3 minutes. The plate was then removed from the QIAVAC™ manifold and blotted dry on paper towels. The plate was then re-attached to the QIAVAC™ manifold fitted with a collection tube rack containing 1.2 mL collection tubes. RNA was then eluted by pipetting 140 μL of RNAse free water into each well, incubating 1 minute, and then applying the vacuum for 3 minutes.
Quantitation of growth hormone receptor mRNA levels was accomplished by real-time quantitative PCR using the ABI PRISM™ 7600, 7700, or 7900 Sequence Detection System (PE-Applied Biosystems, Foster City, Calif.) according to manufacturer's instructions. This is a closed-tube, non-gel-based, fluorescence detection system which allows high-throughput quantitation of polymerase chain reaction (PCR) products in real-time. As opposed to standard PCR in which amplification products are quantitated after the PCR is completed, products in real-time quantitative PCR are quantitated as they accumulate. This is accomplished by including in the PCR reaction an oligonucleotide probe that anneals specifically between the forward and reverse PCR primers, and contains two fluorescent dyes. A reporter dye (e.g., FAM or JOE, obtained from either PE-Applied Biosystems, Foster City, Calif., Operon Technologies Inc., Alameda, Calif. or Integrated DNA Technologies Inc., Coralville, Iowa) is attached to the 5′ end of the probe and a quencher dye (e.g., TAMRA, obtained from either PE-Applied Biosystems, Foster City, Calif., Operon Technologies Inc., Alameda, Calif. or Integrated DNA Technologies Inc., Coralville, Iowa) is attached to the 3′ end of the probe. […]

| Substance | % INHIB of mouse growth hormone receptor mRNA levels |
| --- | --- |
| 227463 (antisense eA*eT*e[5mC]*eA*eG*d[5mC]*dA*dT*d[5mC]*dT*dT*dA*dA*dT*d[5mC]*e[5mC]*eT*eT*eT*eG) [compound 227463] | 39% |
| 227465 (antisense eT*eG*eA*eG*eA*dA*dG*dA*dT*d[5mC]*dT*dG*dG*dA*dT*e[5mC]*eA*eA*eT*e[5mC]) [compound 227465] | 51% |
| 227466 (antisense eT*eT*eG*eT*eA*dG*dT*dT*dA*dT*d[5mC]*dA*dT*dG*dA*eA*eT*eG*e[5mC]*e[5mC]) [compound 227466] | 50% |
| 227467 (antisense e[5mC]*eA*eT*e[5mC]*eA*dT*dT*dG*dT*dA*dG*dA*dA*dG*dT*e[5mC]*eG*eG*eG*eT) [compound 227467] | 33% |
| 227470 (antisense e[5mC]*eT*e[5mC]*e[5mC]*eA*dA*dG*dG*dA*dT*dA*d[5mC]*d[5mC]*dA*dG*e[5mC]*eT*eG*eA*eT) [compound 227470] | 82% |
| 227471 (antisense eA*eG*eG*e[5mC]*eA*d[5mC]*dA*dA*dG*dA*dG*dA*dT*d[5mC]*dA*eG*e[5mC]*eT*eT*e[5mC]) [compound 227471] | 52% |
| 227472 (antisense eA*eG*eA*eG*e[5mC]*d[5mC]*dA*dA*dG*dG*dG*dA*dA*dG*d[5mC]*eA*eT*e[5mC]*eA*eT) [compound 227472] | 42% |
| 227473 (antisense eA*eA*eG*eT*e[5mC]*dA*dA*dT*dG*dT*dT*dT*dG*d[5mC]*d[5mC]*eA*eG*eT*eG*eA) [compound 227473] | 71% |
| 227474 (antisense eT*eG*eT*e[5mC]*eG*d[5mC]*dT*dT*dA*d[5mC]*dT*dT*dG*dG*dG*e[5mC]*eA*eT*eA*eA) [compound 227474] | 68% |
| 227476 (antisense eG*eT*eA*eA*eT*dT*dT*dT*d[5mC]*dT*dT*dG*dG*d[5mC]*dA*eG*eG*eG*e[5mC]*eG) [compound 227476] | 41% |
| 227477 (antisense e[5mC]*eA*e[5mC]*eT*eG*dT*dT*d[5mC]*dA*dT*dG*d[5mC]*dT*dG*dT*eA*eA*eT*eT*eT) [compound 227477] | 61% |
| 227478 (antisense eT*eT*eT*eT*eT*dG*dG*d[5mC]*dA*dT*d[5mC]*dT*dG*dA*d[5mC]*eT*e[5mC]*eA*e[5mC]*eA) [compound 227478] | 68% |
| 227479 (antisense eA*eT*eG*eT*e[5mC]*d[5mC]*dT*d[5mC]*dT*dT*dG*dG*dT*dT*dA*eA*eA*eG*e[5mC]*eT) [compound 227479] | 59% |
| 227485 (antisense e[5mC]*eG*eT*eG*eG*dT*dG*dT*dA*dG*dT*d[5mC]*dT*dG*dG*eG*eA*e[5mC]*eA*eG) [compound 227485] | 45% |
| 227486 (antisense e[5mC]*eG*eG*eT*eG*dT*dG*dA*dA*d[5mC]*d[5mC]*dG*dT*dG*dG*eT*eG*eT*eA*eG) [compound 227486] | 39% |
| 227487 (antisense eT*e[5mC]*eA*eG*eG*d[5mC]*dA*dA*dA*dG*dG*d[5mC]*dA*dA*dA*eG*e[5mC]*eA*eG*eT) [compound 227487] | 44% |
| 227491 (antisense eT*eA*eG*eG*eA*dA*dA*dG*dG*d[5mC]*dT*dA*d[5mC]*dT*dG*e[5mC]*eA*eT*eG*eA) [compound 227491] | 65% |

| Substance | % INHIB of mouse growth hormone receptor mRNA levels |
| --- | --- |
| 227492 (antisense eT*eA*eA*eA*eA*d[5mC]*dA*dT*dA*dG*dT*dT*dT*dT*dG*eG*eT*eT*eT*eA) [compound 227492] | 7% |
| 227493 (antisense eT*e[5mC]*e[5mC]*e[5mC]*eA*dA*d[5mC]*dA*d[5mC]*dA*dG*dA*dT*dT*dT*eA*eA*eA*eA*e[5mC]) [compound 227493] | 51% |
| 227494 (antisense e[5mC]*eA*eA*eA*eA*dG*d[5mC]*d[5mC]*dA*d[5mC]*d[5mC]*dT*dG*dA*dT*eT*eG*eT*eT*eT) [compound 227494] | 56% |
| 227495 (antisense eT*e[5mC]*e[5mC]*eT*eG*dA*dA*d[5mC]*dT*dG*d[5mC]*dA*dA*dA*dA*eG*e[5mC]*e[5mC]*eA*e[5mC]) [compound 227495] | 47% |
| 227496 (antisense eG*e[5mC]*eA*eT*eT*d[5mC]*dA*dA*dT*dT*dT*d[5mC]*d[5mC]*dT*dG*eA*eA*e[5mC]*eT*eG) [compound 227496] | 51% |
| 227497 (antisense eT*eA*eA*eA*eT*dG*dT*dT*dT*dT*dG*d[5mC]*dA*dT*dA*eT*e[5mC]*e[5mC]*eA*eA) [compound 227497] | 77% |
| 227498 (antisense eT*eT*eG*eT*eA*dA*dA*dA*dA*dT*d[5mC]*dT*dA*dA*d[5mC]*eT*eT*eG*eT*eT) [compound 227498] | 49% |
| 227503 (antisense eT*eA*e[5mC]*e[5mC]*eT*dG*dA*dG*dA*d[5mC]*d[5mC]*d[5mC]*d[5mC]*dA*dG*eT*eT*e[5mC]*eA*eT) [compound 227503] | 24% |
| 227504 (antisense eT*eA*e[5mC]*e[5mC]*eT*dG*dA*dG*dA*d[5mC]*d[5mC]*d[5mC]*d[5mC]*dG*d[5mC]*eG*e[5mC]*eA*eG*e[5mC]) [compound 227504] | 34% |
| 227505 (antisense eT*eA*e[5mC]*e[5mC]*eT*dG*dA*dG*dA*d[5mC]*d[5mC]*d[5mC]*dA*d[5mC]*dA*eA*eG*e[5mC]*eG*eG) [compound 227505] | 39% |
| 227506 (antisense e[5mC]*e[5mC]*eT*e[5mC]*e[5mC]*dA*dG*dT*dA*d[5mC]*d[5mC]*dT*d[5mC]*dG*dG*eA*eG*eT*eT*eT) [compound 227506] | 69% |
| 227507 (antisense eG*eT*e[5mC]*e[5mC]*eT*dT*dG*d[5mC]*dT*d[5mC]*d[5mC]*dA*dG*dG*dT*eT*eA*eG*e[5mC]*eA) [compound 227507] | 89% |
| 227508 (antisense eT*eT*e[5mC]*e[5mC]*eA*d[5mC]*dT*d[5mC]*dA*d[5mC]*d[5mC]*d[5mC]*d[5mC]*dA*dG*eT*eT*e[5mC]*eA*eT) [compound 227508] | 51% |
| 227509 (antisense eG*e[5mC]*eA*eG*eT*dT*d[5mC]*dT*dA*dT*d[5mC]*dA*dG*dA*dA*e[5mC]*eT*eT*eT*eG) [compound 227509] | 82% |
| 227510 (antisense e[5mC]*eT*e[5mC]*e[5mC]*eA*dG*dA*d[5mC]*dG*dT*dG*dA*d[5mC]*d[5mC]*d[5mC]*eG*eA*e[5mC]*eT*e[5mC]) [compound 227510] | 64% |
| 227511 (antisense e[5mC]*e[5mC]*eA*e[5mC]*eG*d[5mC]*dA*d[5mC]*d[5mC]*d[5mC]*dA*d[5mC]*dA*dA*dG*e[5mC]*eG*eG*eA*eT) [compound 227511] | 71% |
